Experimental data from patent publication US20240166642A1, “INHIBITORS OF MYELOPEROXIDASE” (ASTRAZENECA AB, priority 2022, published 2024).
Values belong to the molecule of their own block, whether it stands above or below them.

Legend:
[1] = target: TPO (produced in insect cells, RSR Ltd) (Homo sapiens (Human), UniProt P07202); assay: TPO activity (IC50), luminol chemiluminescence assay; type: biochemical; details: PBS pH7.4, luminol 100 μM, H2O2 50 μM, chemiluminescence recorded after 15 minutes
Protocol: (§1) The experiments were performed in phosphate-buffered saline (PBS), pH7.4. A 10 mM luminol (A4695, Sigma Aldrich, St Louis, MO, USA) stock was prepared in distilled water and further diluted in PBS to a final concentration of 100 μM. H2O2 was prepared as 1 mM stock in PBS, yielding a final concentration of 50 μM after addition into the assay. The compounds were serially diluted in DMSO in a separate plate as a 100× stock solution, and MPO (purified from HL60 cells) and TPO (produced in insect cells, RSR Ltd, Cardiff, UK), were diluted to yield a final concentration of approximately 14 and 150 ng/mL, generating 5600 and 9300 light counts per seconds (LCPS) upon incubation with luminol.
(§2) The experiment was run by pipetting 2 μL 100× stock solution of the compound and 200 μL diluted enzyme in PBS into wells in a 96-well Optiplate (6005290, Perkin Elmer/Thermo Fischer, Waltham, MS, USA), followed by addition of 10 μL H2O2 containing PBS. Chemiluminescence measurement (Perkin Elmer Wallac Microbeta Trilux 1450-029 (12-detector), Turkuu, Finland) was started directly and recorded after 2, 10 and 15 minutes.

[2] = target: MPO (purified from HL60 cells) (Homo sapiens (Human), UniProt P05164); assay: MPO activity (IC50), luminol chemiluminescence assay; type: biochemical; details: PBS pH7.4, luminol 100 μM, H2O2 50 μM, chemiluminescence recorded after 15 minutes
Protocol: as §1, §2

Chain of TPO (produced in insect cells, RSR Ltd) (P07202 19-933): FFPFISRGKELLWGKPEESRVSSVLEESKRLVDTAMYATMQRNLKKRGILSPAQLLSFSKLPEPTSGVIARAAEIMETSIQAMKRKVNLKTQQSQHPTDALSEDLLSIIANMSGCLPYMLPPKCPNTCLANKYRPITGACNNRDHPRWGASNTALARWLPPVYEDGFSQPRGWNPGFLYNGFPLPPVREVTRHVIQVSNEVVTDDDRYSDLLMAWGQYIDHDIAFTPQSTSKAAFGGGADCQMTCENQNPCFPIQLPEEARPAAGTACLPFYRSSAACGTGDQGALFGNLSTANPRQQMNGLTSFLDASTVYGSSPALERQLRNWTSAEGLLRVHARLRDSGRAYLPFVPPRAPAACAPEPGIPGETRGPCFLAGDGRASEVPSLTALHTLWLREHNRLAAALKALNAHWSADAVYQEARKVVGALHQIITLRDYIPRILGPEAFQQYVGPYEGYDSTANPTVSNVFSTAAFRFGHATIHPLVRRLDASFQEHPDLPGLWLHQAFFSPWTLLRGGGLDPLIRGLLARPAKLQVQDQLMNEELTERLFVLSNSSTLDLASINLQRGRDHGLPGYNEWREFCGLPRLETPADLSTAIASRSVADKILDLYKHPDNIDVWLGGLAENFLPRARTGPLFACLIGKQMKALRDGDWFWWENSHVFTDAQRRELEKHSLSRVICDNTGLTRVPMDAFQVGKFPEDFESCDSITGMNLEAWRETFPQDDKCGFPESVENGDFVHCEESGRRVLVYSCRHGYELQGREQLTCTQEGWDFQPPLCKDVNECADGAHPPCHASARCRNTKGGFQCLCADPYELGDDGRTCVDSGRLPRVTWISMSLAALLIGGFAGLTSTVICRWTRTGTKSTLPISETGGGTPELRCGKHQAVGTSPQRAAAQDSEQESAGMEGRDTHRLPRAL
Chain of MPO (purified from HL60 cells) (P05164 49-745): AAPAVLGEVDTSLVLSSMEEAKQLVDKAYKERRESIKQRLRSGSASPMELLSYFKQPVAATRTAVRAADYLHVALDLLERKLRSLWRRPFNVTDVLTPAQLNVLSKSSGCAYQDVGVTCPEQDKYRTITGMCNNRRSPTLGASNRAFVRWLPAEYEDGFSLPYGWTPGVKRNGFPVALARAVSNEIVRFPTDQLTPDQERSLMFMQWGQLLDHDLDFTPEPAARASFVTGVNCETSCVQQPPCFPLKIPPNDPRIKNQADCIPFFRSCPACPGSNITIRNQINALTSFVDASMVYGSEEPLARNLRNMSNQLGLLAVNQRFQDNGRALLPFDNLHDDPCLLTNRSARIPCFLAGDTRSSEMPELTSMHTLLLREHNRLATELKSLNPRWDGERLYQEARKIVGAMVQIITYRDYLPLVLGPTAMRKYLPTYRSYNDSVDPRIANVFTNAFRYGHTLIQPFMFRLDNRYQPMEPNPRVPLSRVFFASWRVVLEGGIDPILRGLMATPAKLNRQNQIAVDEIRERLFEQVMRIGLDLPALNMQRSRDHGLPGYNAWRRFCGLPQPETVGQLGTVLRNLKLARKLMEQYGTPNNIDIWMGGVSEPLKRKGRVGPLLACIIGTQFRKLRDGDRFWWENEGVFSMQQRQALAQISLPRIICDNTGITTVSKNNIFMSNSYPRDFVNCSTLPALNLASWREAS

SMILES: NC1(c2ccc(Cn3c(=S)[nH]c(=O)c4[nH]ccc43)cc2)CCC1 [Example 24, 1-(4-(1-Aminocyclobutyl)benzyl)-2-thioxo-1,2,3,5-tetrahydro-4H-pyrrolo[3,2-d]pyrimidin-4-one]
IC50 [1]: 560 nM
IC50 [2]: 12 nM

SMILES: O=c1[nH]c(=S)n(Cc2ccc3c(c2)CNC3)c2cc[nH]c12 [Example 25, 1-(Isoindolin-5-ylmethyl)-2-thioxo-1,2,3,5-tetrahydro-4H-pyrrolo[3,2-d]pyrimidin-4-one]
IC50 [1]: 570 nM
IC50 [2]: 103 nM

SMILES: O=c1[nH]c(=S)n(Cc2cccc3c2CNC3)c2cc[nH]c12 [Example 26, 1-(Isoindolin-4-ylmethyl)-2-thioxo-1,2,3,5-tetrahydro-4H-pyrrolo[3,2-d]pyrimidin-4-one]
IC50 [1]: 840 nM
IC50 [2]: 13 nM

Other lines, results leading:

IC50 [1]: 670 nM
IC50 [2]: 5 nM
SMILES: NC1(c2cccc(Cn3c(=S)[nH]c(=O)c4[nH]ccc43)c2)CCC1 [Example 27, 1-(3-(1-Aminocyclobutyl)benzyl)-2-thioxo-1,2,3,5-tetrahydro-4H-pyrrolo[3,2-d]pyrimidin-4-one]

IC50 [1]: 680 nM
IC50 [2]: 3 nM
SMILES: O=c1[nH]c(=S)n(Cc2ccccc2C2CCCNC2)c2cc[nH]c12 (stereo not drawn) [Example 28, 1-(2-(Piperidin-3-yl)benzyl)-2-thioxo-1,2,3,5-tetrahydro-4H-pyrrolo[3,2-d]pyrimidin-4-one]

IC50 [1]: 590 nM
IC50 [2]: 29 nM
SMILES: O=c1[nH]c(=S)n(Cc2ccccc2C2CCNCC2)c2cc[nH]c12 [Example 30, 1-(2-(Piperidin-4-yl)benzyl)-2-thioxo-1,2,3,5-tetrahydro-4H-pyrrolo[3,2-d]pyrimidin-4-one]
